Results: ChEMBL document CHEMBL1201862, “PubChem BioAssay data set” (2004)
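Test compounds were applied to cells in 96-well plates for 48 hours at 5 doses. GI50 marks 50% less growth.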 The source made the active and inactive calls. No stated cut-off is given here; in the data, active = GI50 up to about 1.1 µM and inactive = higher.

Experiments:
Test in all cases: growth of human tumour cells (NCI), 48 h
EKVX = system: EKVX
DU-145 = system: DU-145
CAKI-1 = system: CAKI-1
HCT-116 = system: HCT-116
Hs-578T = system: Hs-578T
OVCAR-8 = system: OVCAR-8
SK-MEL-5 = system: SK-MEL-5
A549 = system: A549
A498 = system: A498
K562 = system: K562
SK-MEL-28 = system: SK-MEL-28
786-0 = system: 786-0
PC-3 = system: PC-3
KM12 = system: KM12
TK-10 = system: TK-10
MOLT-4 = system: MOLT-4
HOP-62 = system: HOP-62
OVCAR-3 = system: OVCAR-3
NCI-H522 = system: NCI-H522
ACHN = system: ACHN
MDA-MB-435 = system: MDA-MB-435
IGROV-1 = system: IGROV-1
LOX IMVI = system: LOX IMVI
OVCAR-4 = system: OVCAR-4
SR = system: SR
SNB-19 = system: SNB-19
MDA-MB-231 = system: MDA-MB-231
HT-29 = system: HT-29
Malme-3M = system: Malme-3M
NCI-H460 = system: NCI-H460
OVCAR-5 = system: OVCAR-5
HOP-92 = system: HOP-92
UO-31 = system: UO-31
MDA-N = system: MDA-N
SF-539 = system: SF-539
BT-549 = system: BT-549
COLO 205 = system: COLO 205
SF-268 = system: SF-268
HL-60 = system: HL-60
M14 = system: M14
HCC 2998 = system: HCC 2998
MCF7 = system: MCF7
SK-MEL-2 = system: SK-MEL-2
NCI/ADR-RES = system: NCI/ADR-RES
SF-295 = system: SF-295
SN12C = system: SN12C
UACC-62 = system: UACC-62
NCI-H23 = system: NCI-H23
CCRF-CEM = system: CCRF-CEM
U-251 = system: U-251
HCT-15 = system: HCT-15
UACC-257 = system: UACC-257
RXF 393 = system: RXF 393
SW-620 = system: SW-620
T47D = system: T47D
NCI-H226 = system: NCI-H226
RPMI-8226 = system: RPMI-8226
SK-OV-3 = system: SK-OV-3
SNB-75 = system: SNB-75

O=S(=O)(N/C(=N\O)Nc1ccc(Cl)cc1)c1cc(S(=O)(=O)c2ccccc2)cs1
GI50 (EKVX): 16.3 µM (inactive)
GI50 (DU-145): 18 µM (inactive)
GI50 (CAKI-1): 16.6 µM (inactive)
GI50 (HCT-116): 13.6 µM (inactive)
GI50 (Hs-578T): 13.6 µM (inactive)
GI50 (OVCAR-8): 15.8 µM (inactive)
GI50 (SK-MEL-5): 9.08 µM (inactive)
GI50 (A549): 24 µM (inactive)
GI50 (A498): 13.8 µM (inactive)
GI50 (K562): 10.4 µM (inactive)
GI50 (SK-MEL-28): 16 µM (inactive)
GI50 (786-0): 15.7 µM (inactive)
GI50 (PC-3): 15 µM (inactive)
GI50 (KM12): 22.2 µM (inactive)
GI50 (TK-10): 19.2 µM (inactive)
GI50 (MOLT-4): 6.87 µM (inactive)
GI50 (HOP-62): 17.5 µM (inactive)
GI50 (OVCAR-3): 13.5 µM (inactive)
GI50 (NCI-H522): 10.6 µM (inactive)
GI50 (ACHN): 16.1 µM (inactive)
GI50 (MDA-MB-435): 13.8 µM (inactive)
GI50 (IGROV-1): 17.9 µM (inactive)
GI50 (LOX IMVI): 15.5 µM (inactive)
GI50 (OVCAR-4): 12.9 µM (inactive)
GI50 (SR): 6.21 µM (inactive)
GI50 (SNB-19): 17.9 µM (inactive)
GI50 (MDA-MB-231): 20.3 µM (inactive)
GI50 (HT-29): 21 µM (inactive)
GI50 (Malme-3M): 14.2 µM (inactive)
GI50 (NCI-H460): 17.7 µM (inactive)
GI50 (OVCAR-5): 16.5 µM (inactive)
GI50 (HOP-92): 9.62 µM (inactive)
GI50 (UO-31): 14.3 µM (inactive)
GI50 (MDA-N): 15.8 µM (inactive)
GI50 (SF-539): 14.3 µM (inactive)
GI50 (BT-549): 15.5 µM (inactive)
GI50 (COLO 205): 18.7 µM (inactive)
GI50 (SF-268): 11.5 µM (inactive)
GI50 (HL-60): 2.81 µM (inactive)
GI50 (M14): 15.1 µM (inactive)
GI50 (HCC 2998): 13.4 µM (inactive)
GI50 (MCF7): 17.3 µM (inactive)
GI50 (SK-MEL-2): 18.7 µM (inactive)
GI50 (NCI/ADR-RES): 33.2 µM (inactive)
GI50 (SF-295): 15.8 µM (inactive)
GI50 (SN12C): 15.2 µM (inactive)
GI50 (UACC-62): 14.8 µM (inactive)
GI50 (NCI-H23): 17.9 µM (inactive)
GI50 (CCRF-CEM): 11.2 µM (inactive)
GI50 (U-251): 13.7 µM (inactive)
GI50 (HCT-15): 18.8 µM
GI50 (UACC-257): 15.9 µM (inactive)
GI50 (RXF 393): 16.3 µM (inactive)
GI50 (SW-620): 19.8 µM (inactive)
GI50 (T47D): 11.6 µM (inactive)
GI50 (NCI-H226): 28.6 µM (inactive)
GI50 (RPMI-8226): 7.87 µM (inactive)

COC(=O)c1ccc(C)cc1C1CN=NC12Cc1c(C)cccc1C2=O (stereo not given)
GI50 (EKVX): > 100 µM (inactive)
GI50 (DU-145): 55.7 µM (inactive)
GI50 (CAKI-1): 50.6 µM (inactive)
GI50 (HCT-116): 25.6 µM (inactive)
GI50 (Hs-578T): 37.6 µM (inactive)
GI50 (OVCAR-8): 60.1 µM (inactive)
GI50 (SK-OV-3): 94.8 µM (inactive)
GI50 (SK-MEL-5): 30 µM (inactive)
GI50 (A549): 49.4 µM (inactive)
GI50 (A498): 52.5 µM (inactive)
GI50 (K562): 47.5 µM (inactive)
GI50 (SK-MEL-28): 80.4 µM (inactive)
GI50 (786-0): 52.1 µM (inactive)
GI50 (PC-3): 40.2 µM (inactive)
GI50 (KM12): 32.1 µM (inactive)
GI50 (TK-10): 99.3 µM (inactive)
GI50 (MOLT-4): 41.7 µM (inactive)
GI50 (HOP-62): 46.8 µM (inactive)
GI50 (OVCAR-3): 27 µM (inactive)
GI50 (NCI-H522): 24.2 µM (inactive)
GI50 (ACHN): 45.4 µM (inactive)
GI50 (MDA-MB-435): 41 µM (inactive)
GI50 (IGROV-1): 46.1 µM (inactive)
GI50 (LOX IMVI): 24.3 µM (inactive)
GI50 (OVCAR-4): 44.1 µM (inactive)
GI50 (SR): 33.3 µM (inactive)
GI50 (SNB-19): 73.1 µM (inactive)
GI50 (MDA-MB-231): 38.5 µM (inactive)
GI50 (SNB-75): 32 µM (inactive)
GI50 (HT-29): 31.1 µM (inactive)
GI50 (Malme-3M): 58.2 µM (inactive)
GI50 (NCI-H460): 64.7 µM (inactive)
GI50 (OVCAR-5): 73.5 µM (inactive)
GI50 (HOP-92): 38.6 µM (inactive)
GI50 (UO-31): 42.9 µM (inactive)
GI50 (MDA-N): 37.5 µM (inactive)
GI50 (SF-539): 89.1 µM (inactive)
GI50 (BT-549): 75 µM (inactive)
GI50 (COLO 205): 20.2 µM (inactive)
GI50 (SF-268): 52.2 µM (inactive)
GI50 (HL-60): 28.4 µM (inactive)
GI50 (HCC 2998): > 100 µM (inactive)
GI50 (MCF7): 0.394 µM (active)
GI50 (SK-MEL-2): 43.5 µM (inactive)
GI50 (NCI/ADR-RES): 20.3 µM (inactive)
GI50 (SF-295): 50.4 µM (inactive)
GI50 (SN12C): 36 µM (inactive)
GI50 (UACC-62): 28.4 µM (inactive)
GI50 (NCI-H23): 39.4 µM (inactive)
GI50 (CCRF-CEM): 53.5 µM (inactive)
GI50 (U-251): 42.1 µM (inactive)
GI50 (HCT-15): 28.6 µM
GI50 (UACC-257): 49.7 µM (inactive)
GI50 (RXF 393): 48.3 µM (inactive)
GI50 (SW-620): 58.9 µM (inactive)
GI50 (T47D): 23.7 µM (inactive)
GI50 (NCI-H226): 47 µM (inactive)
GI50 (RPMI-8226): 36.6 µM (inactive)
